“Also recorded” adds a separate entry of the source.

For one data set, the target named is T1, 5-HT1A receptor (Homo sapiens, UniProt P08908).
T1 sequence (P08908 1-422): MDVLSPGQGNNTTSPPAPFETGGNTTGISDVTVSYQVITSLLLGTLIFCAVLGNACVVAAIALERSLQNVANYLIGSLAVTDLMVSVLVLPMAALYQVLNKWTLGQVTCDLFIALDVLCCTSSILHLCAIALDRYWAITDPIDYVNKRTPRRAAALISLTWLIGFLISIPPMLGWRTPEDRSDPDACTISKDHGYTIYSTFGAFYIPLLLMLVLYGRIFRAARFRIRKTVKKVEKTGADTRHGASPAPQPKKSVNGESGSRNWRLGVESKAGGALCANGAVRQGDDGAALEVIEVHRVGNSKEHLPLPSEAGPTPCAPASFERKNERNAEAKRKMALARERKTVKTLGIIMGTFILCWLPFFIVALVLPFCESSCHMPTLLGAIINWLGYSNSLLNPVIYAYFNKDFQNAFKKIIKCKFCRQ
The settings on record: description of the compound; cited from earlier work.

A further data set deals with rod photoreceptors. In words: Scotopic flash ERG (a- and b-wave) after blue light-induced injury, model of dry AMD. The data set is classed as in vivo, rat. Conditions: for protection of retinal signaling: doses greater of 1 mg/kg, blue-light induced damage model in rodent; for protection of rod photoreceptors from blue light-induced injury: model of dry AMD. The text has this:
Seven days after exposure to 10,000 lux blue light, the amplitude of a- and b-wave components of the electroretinogram (ERG) is reduced to 20-30% of its pre-exposure amplitude (FIG. 4A). The ERG signals from median respondents in each group are shown in the inset in A. The tracing designated “α” illustrates the signal evoked in a naïve animal when stimulated with 20 candela-sec/m^2 white light. […] Full dose response showing the dose and corresponding retinal concentration of zalospirone is shown in the bar graph (FIG. 4A).
Seven days after exposure to 10,000 lux blue light, the amplitude of a- and b-wave components of the electroretinogram (ERG) is reduced to 20-30% of its pre-exposure amplitude (A). Full dose response showing the dose and corresponding retinal concentration of eptapirone is shown in the bar graph (A). The respective doses and corresponding retinal concentrations achieved following subcutaneous administration of eptapirone are shown on the abscissa. Data is plotted as the mean±SEM percentage of a- or b-wave measured prior to blue light-induced retinal degeneration. Protection of retinal architecture measured as the area of the outer nuclear layer (B) or the size of the lesion (C) in a section taken through the vertical meridian of the eye. H&E stained sections of from the median respondent, naïve and vehicle- or drug-treated animals illustrate the level protection achieved by treatment with 0.3 mg/kg eptapirone.
(§1) Bilateral flash ERG recordings on the dual dome Espion E^3 system (Diagnosys, LLC) were made prior to (baseline) and on the Day of zalospirone administration. Animals were anesthetized with a cocktail of 30 mg/mL Ketamine/0.2 mg/mL Dexmedetomidine (i.m.) to reach a final dose of 15 mg/kg Ketamine and 0.1 mg/kg Dexmedetomidine. Animals' eyes were given 1 drop each of 1% phenylephrine, 0.5% atropine and 1% proparacaine, sequentially. Noninvasive platinum wire loop electrodes moisturized with artificial tears (Goniovisc, Sigmapharmaceuticals, Inc.) were placed over the eyes, a reference electrode were placed in the bridge of the nose and a ground wire into the tail. Scotopic ERG measurements were made at 1e^−5 to 20 cd s/m^2. Photopic ERG measurements for S- and M-cone function were made at 8e^−4 to 40 cd s/m^2. The recording filter was set at 300 Hz.
(§2) Protection of rod photoreceptors by zalospirone from light induced injury is exemplified in FIG. 4 and by eptapirone in FIG. 5 below. Doses greater of 1 mg/kg provide 100% protection of structural integrity of the outer nuclear layer and 80% of retinal signaling in a blue-light induced damage model in rodent.

The test system of data set [1] is rod photoreceptors / outer nuclear layer. In words: Histological analysis (H&E) of retinal architecture after blue light-induced injury. The data set is classed as in vivo, rat. Conditions: for retinal lesion (loss of photoreceptors) measured in the vertical meridian of the eye: blue light injury, maximal damage 1.5 mm superior to the optic nerve head; for protection of structural integrity of the outer nuclear layer: doses greater of 1 mg/kg, blue-light induced damage model in rodent; for outer nuclear cell count and retinal structure (H&E stained retinas): post-blue light, drug-treated vs naive and vehicle-treated retinae. The protocol: Protection of retinal architecture measured as the total count of photoreceptors (FIG. 4B) or the size of the lesion (FIG. 4C) in the section taken through the vertical meridian of the eye. (FIG. 4D) H&E stained sections of from the median respondent, naïve and vehicle- or drug-treated animals illustrate the level protection achieved by treatment with 1 mg/kg zalospirone.
On Day 7 post BL-exposure, animals were anesthetized with Euthasol and decapitated. Following decapitation, bilateral globes were enucleated and marked at the 12:00 position with black tissue ink. Both eyes from each animal were incubated in 5 mL of Davidson's fixative special overnight at RT. After ˜24 hours, both eyes were dehydrated in 50% ethanol (EtOH) for 1 hour at RT followed by storage in 70% EtOH at RT until paraffin processing. Eyes were then shipped to Premier Lab (Longmont, Colo.) for paraffin processing and embedding. Five micrometer thick paraffin sections were cut through the optic nerve head and mounted on glass.
For each eye, three H&E-stained slides were generated. Slides containing H&E-stained cross sections were imaged using the Nanozoomer whole slide scanner employing a 40× objective under bright field optics.
as §2

Data set [2] deals with cone photoreceptors. In words: Photopic ERG for S- and M-cone function after blue light-induced injury. The data set is classed as in vivo, rat. The settings on record: pretreatment with 3 mg/kg; 7 days after 10,000 lux blue light.
Excerpt: (§3) FIG. 6A to 6E illustrate that zalospirone protects cone photoreceptors from blue light-induced injury in a model of dry AMD. […] The amplitude of the medium-wave (blue- and green-light responsive) cone driven ERG signals were reduced by >90% while the short-wave (ultra violet and blue-light responsive) cone signals were virtually eliminated (A, B).
as §1
The protection of cone photoreceptors by zalospirone from light induced injury is exemplified in FIG. 6 below.

The subject of data set [3] is cone photoreceptors. In words: Anti-opsin immunofluorescence in retinal cross sections after blue light-induced injury. Conditions: pretreatment with 3 mg/kg. The data set is classed as in vivo, rat.
Excerpt: as §3
A subset of 5 μm thick paraffin sections cut through the vertical meridian (prepared by Premier Labs) was not stained with H&E, but instead was subjected to anti-opsin immunofluorescent staining to detect both SW and M/L cones. Briefly, sections were baked at 60° C. for 1 hr, deparaffinized in xylene, rehydrated in a decreasing series of alcohols, rinsed in PBS 3×, and blocked in PBS containing 0.1% Tween 20, 0.1% Triton×100, and 5% normal donkey serum for 2 hr at RT. Slides were reacted 0/N at 4° C. with a combined mixture of anti-SW (SCBT; SC-14363) and -M/L (Millipore, Ab5405) opsin antibodies diluted to 1:200 and 1:500, respectively in a PBS buffer containing 0.1% Tween 20, 0.1% Triton×100, and 5% normal donkey serum. To control for specificity of staining, an additional subset of slides were reacted with a combined mixture of anti-SW opsin antibody preadsorbed with sc-14363/blocking peptide and normal rabbit IgG. […] The number of SW and M/L cones was manually counted for both slides from each study eye in dual channel fluorescent images. […]

The test system of the next data set is scotopic b-wave. In words: Scotopic b-wave ERG with treatment after blue light-induced injury. Format: in vivo, Sprague Dawley rat. Conditions: single subcutaneous 3 mg/kg given after blue light injury (3.5 hour, 10,000 lux); stimulus 10^−5 candela-sec/m^2; N=8. The protocol:
FIGS. 9A and 9B illustrate that treatment with zalospirone restores of the amplitude of the scotopic b-wave following light induced injury. FIG. 9A is a representative ERG recordings from a Sprague Dawley rat which was dark adapted overnight and exposed to white light stimulus (10^−5 candela-sec/m^2) are shown at baseline before injury, 7 days following exposure to a 3.5 hour exposure to 10,000 lux blue light and again at 3 days later following a single subcutaneous administration to 3 mg/kg zalospirone. […] The data are presented as mean±SEM, N=8.
as §1, with “The recording filter was set at 300 Hz.” left out

The test system of another data set is retinal signaling. In words: Full-field ERG (modified ISCEV protocols) in normal animals, scotopic and photopic. The data set is classed as in vivo, rat. How it is done: FIG. 7 illustrates that zalospirone selectively enhances the scotopic b-wave. Visual function was assessed in vivo in the rat using standard ISCEV protocols. Measurements were made under scotopic (dark-adapted) conditions (“A”-“C”) or photopic conditions (“D”,“E”). In dark adapted animals, ERG recordings elicited by low intensity stimuli (1×10^−4 candela-sec m^2) treatment with 3 mg/kg zalospirone results in a 50% enhancement of the b-wave (“A”). […] Under photopic conditions signals predominately driven by the cone photoreceptors, the photopic b-wave (“D”) or ERG response to 20 Hz flicker (“E”) were unaffected by treatment with zalospirone (3 mg/kg).
FIG. 8 “A” to “C” illustrates that zalospirone selectively enhances the scotopic b-wave.
as §1
In addition to protecting retinal photoreceptors and preserving their function during exposure to an insult, the enhancement or normalization of retinal signaling after injury would be provide significant value in degenerative retinal diseases. The International Society for Clinical Electrophysiology of Vision (ISCEV) provides standards for ascertaining the effects of interventions on retinal signaling. […] Expanding on the observation that scotopic signaling was enhanced in normal animals, it was hypothesized that zalospirone could contribute to the normalization of retinal signaling following injury.

[4] abbreviates: 7 days after 10,000 lux blue light.
Where [5] appears, read: 3 mg/kg, dark adapted, 20 candela-sec m^2.
[6] abbreviates: 3 mg/kg, photopic conditions, normal animals.

Regarding `Cn1c(=O)cnn(CCCCN2CCN(c3ncccn3)CC2)c1=O` [eptapirone, 4-Methyl-2-[4-(4-pyrimidin-2-yl-piperazin-1-yl)-butyl]-2H-[1,2,4]triazine-3,5-dione], at 5-HT1A receptor, the 5-HT1A receptor activity result is “very potent and highly selective 5-HT1A receptor full agonist”. Also, the “protection of retinal signaling” value in the data set with rod photoreceptors is on record as 80%. In addition, in the data set with rod photoreceptors (setting [4]), the “protection of rod photoreceptors from blue light-induced injury” value is “protects rod photoreceptors from blue light-induced injury”. Besides, in data set [1], the “retinal lesion (loss of photoreceptors) measured in the vertical meridian of the eye” value is given as “almost entirely prevents this lesion from forming”; the “protection of structural integrity of the outer nuclear layer” value came out at 100%; the “outer nuclear cell count and retinal structure (H&E stained retinas)” value is “maintains outer nuclear cell count but also normalizes retinal structure”.
Turning to `O=C1[C@@H]2C3C=CC([C@H]4CC[C@@H]34)[C@@H]2C(=O)N1CCCCN1CCN(c2ncccn2)CC1` [zalospirone, (3aα,4α,4aβ,6aβ,7α,7aα)-hexahydro-2-(4-(4-(2-pyrimidinyl)-1-piperazinyl)butyl)-4,7-etheno-1H-cyclobut(f)isoindole-1,3(2H)-dione], the “photopic b-wave amplitude (medium-wave and short-wave cone driven ERG signals)” value with cone photoreceptors [2] is recorded as “significantly protected; also recorded: largely restored ERG signaling”. For the same compound, the “cones by short wave and medium/long wave opsin immunofluorescent staining” value in the data set with cone photoreceptors [3] is “virtually identical to that in naïve animals; also recorded: prevents the loss of cones”. Moreover, the “scotopic b-wave amplitude after injury compared with baseline” value in the data set on scotopic b-wave is recorded as “fully restored the b-wave to its baseline amplitude; also recorded: restored b-wave amplitudes to the baseline levels”. Besides, the “rod-based signaling (scotopic b-wave)” value with retinal signaling (3 mg/kg, dark adapted rats, low intensity stimuli ≦10^−3 candelas-sec/m^2) is listed as “preferentially augments rod-based signaling”. Also, in the data set on retinal signaling (setting [5]), the retinal oscillatory potentials result is “neither the b-wave (“B”) nor the retinal oscillatory potentials (“C”) were affected” and the “scotopic b-wave at greater intensity stimuli” value is “neither the b-wave (“B”) nor the retinal oscillatory potentials (“C”) were affected”. Also, in the data set with retinal signaling (3 mg/kg, dark adapted, low intensity stimuli 1×10^−4 candela-sec m^2), the “enhancement of the scotopic b-wave” value is 50%. Further, in the data set with retinal signaling (setting [6]), the “ERG response to 20 Hz flicker” value was “unaffected” and the photopic b-wave result was “unaffected”. The “scotopic signaling, modified ISCEV full-field electroretinography” value with retinal signaling (rat) is reported as “selectively enhanced scotopic signaling”. In addition, the 5-HT1A receptor activity result at 5-HT1A receptor is reported as “selective 5-HT1A partial agonist”. In the data set with rod photoreceptors, the “protection of retinal signaling” value was 80%. Also, the “protection of the ERG signal” value in the data set on rod photoreceptors (median animal dosed with 3 mg/kg, 7 days after 10,000 lux blue light, 20 candela-sec/m^2 white light stimulus) is reported as “complete protection”. Besides, the “protection of rod photoreceptors from blue light-induced injury” value in the data set on rod photoreceptors (setting [4]) is listed as “protects rod photoreceptors from blue light-induced injury”. In data set [1], the “retinal lesion (loss of photoreceptors) measured in the vertical meridian of the eye” value is “almost entirely prevents this lesion from forming”; the “protection of structural integrity of the outer nuclear layer” value is reported as 100%; the “outer nuclear cell count and retinal structure (H&E stained retinas)” value is given as “maintains outer nuclear cell count but also normalizes retinal structure”.

The record behind these values is US20150328221A1, “COMPOUNDS FOR PROTECTION OF PHOTORECEPTOR CELLS AND FOR ENHANCING VISUAL FUNCTION UNDER LOW LIGHT CONDITIONS” (Allergan, Inc., priority 2014, published 2015).
